Key:
[1] = Cai et al., Inorg. Chim. Acta 1997; cited from earlier work
[2] = Fluorescence emission profile with stoichiometric divalent metal ion: Cu^2+; settings: 200 μM compound, λex/λem: compound 1 300/390 nm, compound 3 315/357 nm, compound 4 365/520 nm
Method: (§1) Commercially available reagents, obtained from Acros Organics and Aldrich were used as received. All solvents were distilled before use. Reactions were monitored by thin-layer chromatography (TLC) and visualization was accomplished with a UV lamp. Reaction mixtures were purified by column chromatography, performed with the indicated solvents using silica gel (230-400 mesh). The Rf values were calculated based on the eluents used for purification. The yields reported refer to chromatographically and spectroscopically pure compounds. The purity of the compounds were ascertained by GC/MS analysis (HP 5890 Series II GC fitted with HP 5971 Series Mass Selective Detector). ^1H and proton decoupled ^13C NMR spectra were recorded on a Bruker AMX 500 MHz spectrometer at ambient temperature. The fluorescence spectra were obtained using Jobin Yvon Horiba Fluorolog-3 spectrofluorometer. […] The fluorescence measurements were carried out on 3 mL samples of the sensor and 3 μL aliquots of the 200 mM metal ion solution in HEPES were added to the sample to make up the desired metal concentrations.
(§2) The influence of divalent metal ions on the fluorescence spectral profile of compound 1 is shown in FIG. 1, where the fluorescence emission spectra of 200 μM compound 1 (λex=300 nm) with stoichiometric concentrations of selected divalent metal ions. Compound 1 has a weak fluorescence emission peak around 386-390 nm, which is differently affected by different metal ions. […] In contrast, the fluorescence intensity of compound 1 decreases in the presence of Cu^2+, Ni^2+, and Co^2+.
(§3) The influence of divalent metal ions on the fluorescence spectral profile of compound 3 is shown in FIG. 3, where the fluorescence emission spectra of 200 μM […] (λex=315 nm) with stoichiometric concentrations of selected divalent metal ions. Compound 3 has a weak fluorescence emission peak around 355-360 nm, which is differently affected by different metal ions. […] In contrast, as expected, the fluorescence intensity of compound 3 decreases in the presence of Cu^2+, Ni^2+, and Co^2+. […]

[3] = Fluorescence emission profile with stoichiometric divalent metal ion: Mg^2+; settings: 200 μM compound, λex/λem: compound 1 300/390 nm, compound 3 315/357 nm, compound 4 365/520 nm
Method: as §1, §2, §3

[4] = Solubility; assay type: physicochemical; settings: for solubility: solvent not given
[5] = Fluorescence emission profile with stoichiometric divalent metal ion: Co^2+; settings: 200 μM compound, λex/λem: compound 1 300/390 nm, compound 3 315/357 nm, compound 4 365/520 nm
Method: as §1, §2, §3

[6] = Fluorescence emission profile with stoichiometric divalent metal ion: Ni^2+; settings: 200 μM compound, λex/λem: compound 1 300/390 nm, compound 3 315/357 nm, compound 4 365/520 nm
Method: as §1, §2, §3

[7] = Fluorescence emission profile with stoichiometric divalent metal ion: Ca^2+; settings: 200 μM compound, λex/λem: compound 1 300/390 nm, compound 3 315/357 nm, compound 4 365/520 nm
Method: as §1, §2, §3

[8] = Fluorescence emission profile with stoichiometric divalent metal ion: Zn^2+; settings: for effect of Zn^2+ on fluorescence emission intensity: stoichiometric ion, λex/λem: compound 1 300/390 nm, compound 3 315/357 nm, compound 4 365/520 nm
Method: Commercially available reagents, obtained from Acros Organics and Aldrich were used as received. All solvents were distilled before use. Reactions were monitored by thin-layer chromatography (TLC) and visualization was accomplished with a UV lamp. Reaction mixtures were purified by column chromatography, performed with the indicated solvents using silica gel (230-400 mesh). The Rf values were calculated based on the eluents used for purification. The yields reported refer to chromatographically and spectroscopically pure compounds. The purity of the compounds were ascertained by GC/MS analysis (HP 5890 Series II GC fitted with HP 5971 Series Mass Selective Detector). ^1H and proton decoupled ^13C NMR spectra were recorded on a Bruker AMX 500 MHz spectrometer at ambient temperature. The fluorescence spectra were obtained using Jobin Yvon Horiba Fluorolog-3 spectrofluorometer. The HEPES buffer was prepared from commercially available 1M solution of the free acid and the pH was adjusted to 7.0 by the addition of KOH pellets in the presence of 0.135 M NaCl. The fluorescence measurements were carried out on 3 mL samples of the sensor and 3 μL aliquots of the 200 mM metal ion solution in HEPES were added to the sample to make up the desired metal concentrations.
as §2
The influence of divalent metal ions on the fluorescence spectral profile of compound 3 is shown in FIG. 3, where the fluorescence emission spectra of 200 μM […] (λex=315 nm) with stoichiometric concentrations of selected divalent metal ions. Compound 3 has a weak fluorescence emission peak around 355-360 nm, which is differently affected by different metal ions. […] In contrast, as expected, the fluorescence intensity of compound 3 decreases in the presence of Cu^2+, Ni^2+, and Co^2+. […] Titration of compound 3 with Zn^2+ indicates a Kd value of 2 mM (approx.).
The influence of divalent metal ions on the fluorescence spectral profile of compound is shown in FIG. 4, where the fluorescence emission spectra of 200 μM […] (λex=365 nm) with stoichiometric concentrations of selected divalent metal ions. Compound 4 has a UV absorption maximum at 425 nm. […] Excitation at shorter wavelengths e.g. at 365 nm leads to a weak emission peak around 520 nm, which is differently affected by different metal ions.

[9] = Spectrofluorometric titration of compound with Zn^2+ (ZnCl2); assay type: binding; settings: approx.
Method: as §1
To determine the magnitude of Zn^2+ induced fluorescence spectral changes of compound 1 as well as its binding affinity, a detailed spectrofluorometric titration study was performed.

[10] = Fluorescence emission profile with stoichiometric divalent metal ion: Hg^2+; settings: 200 μM compound, λex/λem: compound 3 315/357 nm, compound 4 365/520 nm
Method: as §1
(§4) The influence of divalent metal ions on the fluorescence spectral profile of compound 3 is shown in FIG. 3, where the fluorescence emission spectra of 200 μM compound 1 (λex=315 nm) with stoichiometric concentrations of selected divalent metal ions. […]

[11] = Fluorescence emission profile with stoichiometric divalent metal ion: Cd^2+; settings: 200 μM compound, λex/λem: compound 3 315/357 nm, compound 4 365/520 nm
Method: as §1, §4

| Molecule | divalent metal binding [1] | effect of Cu^2+ on fluorescence emission intensity [2] | effect of Mg^2+ on fluorescence emission intensity [3] | solubility in the aqueous medium ([4]; aqueous medium) | solubility [4] | effect of Co^2+ on fluorescence emission intensity [5] | effect of Ni^2+ on fluorescence emission intensity [6] | effect of Ca^2+ on fluorescence emission intensity [7] | effect of Zn^2+ on fluorescence emission intensity ([8]; 200 μM compound) | Zn^2+-induced fluorescence enhancement in the presence of excess Ca^2+ ([8]; 100 fold excess of Ca^2+) | increase of fluorescence emission intensity in the presence of Zn^2+ ([8]; stoichiometric concentration of Zn^2+, 200 μM compound, λex=300 nm) | Kd [9] [µM] | effect of Hg^2+ on fluorescence emission intensity [10] | effect of Cd^2+ on fluorescence emission intensity [11] | solubility in water and methanol ([4]; water and methanol) |
| --- | --- | --- | --- | --- | --- | --- | --- | --- | --- | --- | --- | --- | --- | --- | --- |
| Cc1cc(N(CC(=O)O)CC(=O)O)c(O)c(N(CC(=O)O)CC(=O)O)c1 [N,N,N′,N′-tetrakis(carboxylatemethyl)-2,6-diaminocresol] | binding to only Co^2+ or Cu^2+ |  |  |  |  |  |  |  |  |  |  |  |  |  |  |
| COc1c(N(CC(=O)[O-])CC(=O)[O-])cc(C)cc1N(CC(=O)[O-])CC(=O)[O-].[K+].[K+].[K+].[K+] [compound 1, Potassium-2,6-diamino-(N,N,N′,N′-tetraacetate)-4-methylanisole] |  | decreases | barely affected | high solubility | readily soluble | decreases | decreases | only slightly increased | most dramatic effect | maintained | about 10 fold |  |  |  |  |
| O=C([O-])CN(CC(=O)[O-])c1cccc(N(CC(=O)[O-])CC(=O)[O-])c1.[Na+].[Na+].[Na+].[Na+] [compound 3, Sodium 1,3-diamino-(N,N,N′,N′-tetraacetate)benzene] |  | decreases | slightly enhanced |  |  | decreases | decreases | slightly enhanced | enhanced significantly |  |  | ~2000 | slightly enhanced | slightly enhanced |  |
| Sodium 2,6-diamino-(N,N,N′,N′-tetraacetate)-3-nitroanisole [compound 4] |  | significantly quenched | slightly quenched |  |  | significantly quenched | significantly quenched | slightly quenched | substantially enhanced |  |  |  | no discernable effect | substantially enhanced |  |
| Zinc-2,6-diamino-(N,N,N′,N′-tetraacetate)-4-methylanisole [compound 1-Zn complex] |  |  |  |  | low solubility |  |  |  |  |  |  |  |  |  | low solubility |

Reference: US7384789B2, “Divalent metal ion sensors and binders” (The University of North Dakota, priority 2006, dated 2008)
